Laboratory results: patent US20040018528A1, “Novel biomarkers of tyrosine kinase inhibitor exposure and activity in mammals” (Sugen, Inc., priority 2002, published 2004)
Where “and” joins values, the source holds several entries; their conditions need not be identical. Identical values can stand only once.

What was measured:
Type in all cases: in vivo, human
TIMP-1 = assay: ELISA of TIMP-1 in plasma of patients given Compound A; details: cancer patients; 24 hours after first dose vs before; dosed twice over 24 hours
Protocol: (§1) (Minneapolis, Minn.). Human plasminogen activator inhibitor-1 (PAI-1) and human tissue factor (TF) ELISA kits were obtained from American Diagnostica, Inc. (Greenwich, Conn.). All ELISAs were performed on plasma samples according to the manufacturers' instructions.

[1] = system: RNA transcripts in patient whole blood; assay: Affymetrix DNA array and TaqMan qRT-PCR of whole blood RNA of patients given Compound A; details: Affymetrix GeneChip
Protocol: TRI Reagent® BD—RNA, DNA, protein isolation reagent was used according to the manufacturer's protocol, Molecular Research Center, Inc. (Cincinnati, Ohio) <www.mrcgene.com>.
Images were scanned with a Hewlett-Packard GeneArray scanner.
To determine the fold change, the AD of the post-treatment sample was divided by the AD of the pre-dose samples.
All probes contained a reporter dye (FAM) and a dye quencher (MGB). QRT-PCR was performed using 20 ng of total RNA with TaqMan® One-Step RT-PCR Master Mix Reagents Kit (Applied Biosystems) following the manufacturer's protocol. […] VEGF (Genbank accession number AF022375) transcripts were amplified using forward primer […] (SEQ ID NO: 165), reverse primer […] (SEQ ID NO: 166), and probe […] (SEQ ID NO: 167) to generate an 82-bp amplicon product. Vinculin (Genbank accession number M33308) transcripts were amplified using forward primer […] (SEQ ID NO: 168), reverse primer […] (SEQ ID NO: 169), and probe […] (SEQ ID NO: 170) to generate a 124-bp amplicon product. PECAM-1 (Genbank accession number L34657) transcripts were amplified using forward primer […] (SEQ ID NO: 171), reverse primer […] (SEQ ID NO: 172), and probe […] (SEQ ID NO: 173) to generate a 56-bp amplicon product. MAPK Kinase 3 (Genbank accession number L36719) transcripts were amplified using forward primer […] (SEQ ID NO: 174), reverse primer […] (SEQ ID NO: 175), and probe […] (SEQ ID NO: 176) to generate a 77-bp amplicon product. Hemoglobin, epsilon 1 (Genbank accession number AI349593) transcripts were amplified using forward primer […] (SEQ ID NO: 177), reverse primer […] (SEQ ID NO: 178), and probe […] (SEQ ID NO: 179) to generate a 66-bp amplicon product. GAPDH and 18S were ordered as pre-developed assay reagents (PDARs) from Applied Biosystems and used as endogenous controls.
Where ΔΔCt=(Cttarget−Ctcontrol)post-dose−(Cttarget−Ctcontrol)pre-dose.

VEGF = assay: ELISA of VEGF in plasma of patients given Compound A; details: cancer patients; 24 hours after first dose vs before; dosed twice over 24 hours
Protocol: as §1

PAI-1 [2] = assay: ELISA of PAI-1 in plasma of patients given Compound A; details: cancer patients; 24 hours after first dose vs before; dosed twice over 24 hours
Protocol: as §1

MIG [3] = assay: MIG plasma ELISA, Compound 1 Phase I trials; details: Trial C patients, FIG. 17
I-TAC = I-TAC plasma ELISA, Compound 1 Phase I trials; details: individual patients
Protocol: (§2) In Trials A and B, patients received Compound 1.
(§3) Data analysis was performed for each marker.

MIG [4] = assay: MIG plasma ELISA, Compound 1 Phase I trials; details: individual patients
Protocol: as §2, §3

IP-10 = IP-10 plasma ELISA, Compound 1 Phase I trials; details: individual patients; >500 = above highest standard
Protocol: as §2, §3

VEGF/PLGF heterodimers = assay: Hybrid ELISA for VEGF/PLGF heterodimers in patient plasma; details: Trial C
From the text: Heterodimers of VEGF and PLGF have been reported in the scientific literature. To measure heterodimers, a hybrid ELISA assay was used, combining reagents from both the R&D Systems VEGF and PLGF ELISA kits (where VEGF antibodies are used in capture step and PLGF antibodies are used in detection step).

PBMC = assay: Affymetrix microarray expression profiling of PBMC, Compound B Trial A; details: PBMC day 56 vs day 1
Protocol: Patient samples were derived from 2 randomized, open-label, multicenter Phase III clinical trials comparing standard of care chemotherapy alone or combined with Compound B in patients with metastatic colorectal cancer. In both trials Compound B was delivered twice weekly at a dose of 145 mg/m^2 via I.V. infusion. In the first trial (designated Trial A), the standard of care chemotherapy consisted of weekly administration of 5-FU and leucovorin (Rosewell Park regimen); in the second trial (designated Trial B), the standard of care chemotherapy consisted of weekly or bi-weekly administration of 5-FU, leucovorin and Irinotecan (CPT-11). A total of 23 patient sample pairs were included in Affymetrix microarray expression profiling analysis, 2 females and 9 males in the Compound B treatment arm, and 2 females and 10 males in the control arm. The median patient age was 66 and 65 years for the Compound B treatment arm and control arm, respectively. For RT-verification experiments, samples from 12 females and 24 males from the Compound B treatment arm, and 14 females and 17 males from the control arm were used. The median age for these patients was 62 and 60 years, respectively. Clinical response criteria were defined according to RECIST guidelines.
All blood samples were collected into Vacutainer tubes containing sodium heparin. Ten 10 ml of blood was withdrawn from patients prior to receiving any treatment on day 1 and also prior to dosing at end of cycle 1 (day 56 in Trial A; day 42 in Trial B). For peripheral blood mononuclear cell (PBMC) preparations, blood samples were shipped overnight at ambient temperature to a central processing facility (Quest Diagnostics, Inc., Collegeville, Pa., USA) for PBMC isolation via Ficoll gradient method. Purified PBMCs were shipped in RNA lysis buffer (Clontech, Palo Alto, Calif., USA) to SUGEN where isolation of total RNA was performed. For Trial B, whole peripheral blood samples were directly frozen at the clinical sites and shipped on dry ice to SUGEN for RNA isolation.
Total RNA was purified from PBMC samples using Clontech Nucleospin RNA II kit reagents (Clontech, Palo Alto, Calif.) and from whole blood samples using MRC TRI Reagent BD (Molecular Research Center, Cincinnati, Ohio, USA), an adaptation of the Chomczynski single step method, according to the manufacturer's instructions. All sample preparations included a treatment with RNAse-free DNAse. RNA yields were measured by UV absorbance and RNA quality was assessed by agarose gel electrophoresis with ethidium bromide staining for visualization of ribosomal RNA band integrity.
In these experiments, equal amounts of starting material were used for pre- and post-treatment samples from each donor (typically 2 μg). Briefly, the protocol was as follows: double-stranded cDNA was synthesized from total RNA (2 μg), with Invitrogen Life Technologies SuperScript Choice system reagents (Invitrogen, Carlsbad, Calif.). The T7-(dT)24 oligomer was used for priming first-strand cDNA synthesis. Double-stranded cDNA product was purified via phenol-chloroform extraction, then used as template in first round of in vitro transcription (IVT) of cRNA. […] The cRNA product was then purified with Qiagen spin column clean-up protocol and used as template in second round of cDNA synthesis. This second round of synthesis was similar to the first round except that random hexamers were used in priming of first-strand synthesis, with T7-(dT)24 oligomer priming the second-strand. Purification of the cDNA was as in the first round. The second round of IVT of cRNA was as in the first round but with biotinylated ribonucleotides rather than non-biotinylated ribonucleotides. Purified cRNA was quantitated, chemically fragmented according to Affymetrix protocol, and then hybridized overnight on Human Genome U95A Arrays (which contain probe sets for the detection of approximately 12,600 transcripts). […]

PBMC and whole blood RNA = assay: SYBR Green quantitative RT-PCR of PBMC / whole blood RNA, Compound B Trials A and B; details: end of one treatment cycle relative to baseline, two Phase III trials
Protocol: Primers were designed with Primer Express 1.5 software (Applied Biosystems). In all cases, primers were designed to bind within the sequence that was used in Affymetrix probe set designs (target sequence information available on Affymterix NetAffx website). Total RNA samples (1 μg) were reverse transcribed to yield first-strand cDNA using the Applied Biosystems Reverse Transcription Reagents protocol (Applied Biosystems, Foster City, Calif.). The reverse transcription reactions were then diluted 1:5 in distilled H2O. […] For individual reactions, 10 μl of each sample were combined with 15 μl of SYBR Green PCR Master Mix (Applied Biosystems) containing the appropriate primer pair at 350 nM. Data was extracted and amplification plots generated with ABI SDS software. […]
The relative expression data for a select subset of potential biomarkers were tested for differences between the Compound B (treatment) and the standard of care (control) arms. […] Results from three different cross-validations were evaluated to select the best set of predictable biomarkers: (1) jackknife method (dropping one case at a time); (2) randomly splitting the pooled data into two halves, prediction (for building model) and validation (for testing model); and (3) using the first trial as prediction and the later trial as validation sets, respectively. […]

PAI-1 [5] = assay: PAI-1 plasma levels in Compound B trial patients; details: after 56 days of treatment
[6] = advanced solid malignancies, 24 hours after first dose vs before
[7] = patients with Increase call, Trial A, with 5-FU/leucovorin

Cc1[nH]c(/C=C2\C(=O)Nc3ccccc32)c(C)c1CCC(=O)O [Compound A, 3-[2,4-dimethyl-5-(2-oxo-1,2-dihydro-indol-3-ylidenemethyl)-1H-pyrrol-3-yl]-propionic acid]
level of TIMP-1 in plasma (TIMP-1): increased
level of VEGF RNA in whole blood [1, 6]: increase
level of vinculin RNA in whole blood [1, 6]: increase
levels of 26 RNA transcripts in patient blood ([1]; day 28 vs day 0, dosed about 2 times per day): increased and/or decreased
level of VEGF in plasma (VEGF): increased
level of PAI-1 in plasma (PAI-1 [2]): increased

CCN(CC)CCNC(=O)c1c(C)[nH]c(C=C2C(=O)Nc3ccc(F)cc32)c1C.O=C(O)C[C@H](O)C(=O)O [malate salt of Compound 1, L-malate salt of 5-(5-fluoro-2-oxo-1,2-dihydroindol-3-ylidenemethyl)-2,4-dimethyl-1H-pyrrole-3-carboxylic acid(2-diethylaminoethyl)amide]
chemokine MIG plasma level during treatment (MIG [3]): induced
I-TAC plasma level, day 15 (I-TAC; cycle 1): 2020.2
I-TAC plasma level, end C1 dosing (I-TAC; in pg/mL (unit assumed)): 771.04 and 701.46 and 315.69
MIG plasma level, day 15 (MIG [4]; cycle 1): 339.16
MIG plasma level, end C1 dosing (MIG [4]; in pg/mL (unit assumed)): 995.47 and 81.439 and 145.64 and 698.23 and 1066.2 and 344.93 and 907.09 and 314.2
IP-10 plasma level, end C1 dosing (IP-10): >500 (4×) and 240.31 and 384.06
patients tested with increase in plasma levels of VEGF/PLGF heterodimer (VEGF/PLGF heterodimers): 3 of 3

Cc1cc(C)c(/C=C2\C(=O)Nc3ccccc32)[nH]1 [Compound B, 3-(3,5-dimethyl-1H-pyrrol-2-ylmethylene)-1,3-dihdyro-indol-2-one]
average fold change of lactoferrin transcript (PBMC; Compound B (SU5416) arm, highest of the 13 transcripts): 33
average fold change of hypothetical protein FLJ13052 transcript (PBMC; Compound B (SU5416) arm, lowest of the 13 transcripts): 2.6
Increased in SU5416 arm: Antileukoprotease transcript (PBMC; [7]): 9 of 11
Increased in SU5416 arm: BPI transcript (PBMC; [7]): 9 of 11
Increased in SU5416 arm: CD24 antigen transcript (PBMC; [7]): 9 of 11
Increased in SU5416 arm: CEA CAM 8 transcript (PBMC; [7]): 9 of 11
Increased in SU5416 arm: Defensin α 3 transcript (PBMC; [7]): 10 of 11
Increased in SU5416 arm: Defensin α 4 transcript (PBMC; [7]): 10 of 11
Increased in SU5416 arm: Hypothetic. Protein FLJ13052 transcript (PBMC; [7]): 7 of 11
Increased in SU5416 arm: Lactoferrin transcript (PBMC; [7]): 11 of 11
Increased in SU5416 arm: Lipocalin 2 transcript (PBMC; [7]): 10 of 11
Increased in SU5416 arm: Liver arginase transcript (PBMC; [7]): 9 of 11
Increased in SU5416 arm: MMP-9 transcript (PBMC; [7]): 8 of 11
Increased in SU5416 arm: S100 P transcript (PBMC; [7]): 9 of 11
Increased in SU5416 arm: Thrombospondin 1 transcript (PBMC; [7]): 9 of 11
number of the 13 genes showing induction in each case (PBMC; all cases of the Compound B arm): at least 6
expression of CD24, lactoferrin, LCN2 and MMP-9 transcripts (PBMC and whole blood RNA): significantly induced
median PAI-1 plasma level, day 56 (PAI-1 [5]; patients with MR (minor response) at end of cycle 1): 23.93 ng/mL
median PAI-1 plasma level, day 56 (PAI-1 [5]; patients with PD (progressive disease) at end of cycle 1): 34.8 ng/mL
